According to patent US4228293A, “Iodo-A-23187 derivatives” (Eli Lilly and Company, priority 1978, dated 1980):
“Also recorded” adds a separate entry of the source.

Experiments:
[1] = molecular target: cation transport ATPase in liver mitochondria; test: In vitro inhibition of cation transport ATPase in liver mitochondria; format: biochemical
Source text: In yet another aspect, the compounds of this invention are active as inhibitors of the enzyme ATPase. ATPase, an alkali-metal-sensitive enzyme found in cell membranes, is involved in the energy necessary for active transport. "Active transport" refers to the energy-requiring series of operations whereby intracellular and extracellular fluids maintain their compositions. Inhibitors of ATPase reduce the energy required for active transport. Table III summarizes the results of in vitro tests measuring inhibition of cation transport ATPase in liver mitochondria [measured as half effective concentration (Ic50) in mcg/ml].

[2] = tested on: Staphylococcus aureus (H-Heatley strain, NRRL B-314); test: Antibacterial bioassay (Westhead); format: cell-based; details: S. aureus H-Heatley NRRL B-314 bioassay; free acid
Source text: The compounds of this invention are useful antibacterial agents. In this aspect, these compounds may be used in the same manner in which the parent antibiotic is used, as described in U.S. Pat. No. 3,923,823. A bioassay for the antibacterial activity of A-23187 has been described by J. E. Westhead in Antimicrobial Agents and Chemotherapy 11 (5), 916-918 (1977). The test organism for this bioassay is Staphylococcus aureus (H-Heatley strain, NRRL B-314).

[3] = Acute toxicity in mice, intraperitoneal; details: mouse, in vivo, ip, mg/kg × 1, free acid
Protocol: The compounds of the present invention are, in general, less toxic than the parent antibiotic. Table II summarizes the acute toxicities of representative compounds in mice, expressed as LD50, when the compounds are administered intraperitoneally.

[4] = cited from earlier work

SMILES	half effective concentration (Ic50), ATPase induced by K^+ monazomycin [1] [µg/mL]	Bioassay [2] [µg/mL]	LD50 [3] [mg/kg]	half effective concentration (Ic50), ATPase induced by CaCl2 [1] [µg/mL]	transport of Mg^2+ compared with Ca^2+ ([4]; Mg^2+ vs Ca^2+)	discrimination for divalent over monovalent cations ([4]; divalent vs monovalent cations)
CNc1ccc2oc(C[C@H]3O[C@@]4(CC[C@H]3C)O[C@H]([C@H](C)C(=O)c3cc(I)c(I)[nH]3)[C@H](C)C[C@H]4C)nc2c1C(=O)O [23,24-diiodo-A-23187, 5-(methylamino)-2-[[3β,9α,11β-trimethyl-8-[1α-methyl-2-oxo-2-(4,5-diiodo-1H-pyrrol-2-yl)ethyl]-1,7-dioxaspiro-[5.5]undec-2β-yl]methyl]-4-benzoxazolecarboxylic acid]	0.8	560	100	–	–	–
CNc1ccc2oc(C[C@H]3O[C@@]4(CC[C@H]3C)O[C@H]([C@H](C)C(=O)c3cc(I)c[nH]3)[C@H](C)C[C@H]4C)nc2c1C(=O)O [23-iodo-A-23187, 5-(methylamino)-2-[[3β,9α,11β-trimethyl-8-[1α-methyl-2-oxo-2-(4-iodo-1H-pyrrol-2-yl)ethyl]-1,7-dioxaspiro[5.5]undec-2β-yl]methyl]-4-benzoxazolecarboxylic acid]	< 0.05	1331	25	5	–	–
CNc1ccc2oc(C[C@H]3O[C@@]4(CC[C@H]3C)O[C@H]([C@H](C)C(=O)c3ccc[nH]3)[C@H](C)C[C@H]4C)nc2c1C(=O)O [A-23187]	0.5	1060	5.8	0.5	transports Mg^2+ with a similar efficiency to Ca^2+	substantially selective for the transport of divalent over monovalent cations; also recorded: not complete
